Series [1] deals with Staphylococcus aureus. In words: Antibacterial activity against methicillin resistant Staphylococcus aureus ATCC 33591 assessed as inhibition of bacterial growth incubated for 18 to 24 hrs by broth microdilution method. It is filed as functional. The conditions noted are these: time 18-24 hrs. Background: Broth dilution looks for growth in wells or tubes with falling amounts of substance.

Series [2] relates to Staphylococcus aureus. In words: Antibacterial activity against Staphylococcus aureus ATCC 29213 assessed as inhibition of bacterial growth incubated for 18 to 24 hrs by broth microdilution method. It is filed as functional. To be noted: time 18-24 hrs.
For series [3], the system named is Staphylococcus epidermidis. In words: Antibacterial activity against methicillin resistant Staphylococcus epidermidis clinical isolate 19-5 assessed as inhibition of bacterial growth incubated for 18 to 24 hrs by broth microdilution method. The conditions noted are these: time 18-24 hrs. The format is functional.
The subject of series [4] is Staphylococcus epidermidis. Nature of the series: Antibacterial activity against methicillin resistant Staphylococcus epidermidis clinical isolate 19-6 assessed as inhibition of bacterial growth incubated for 18 to 24 hrs by broth microdilution method. The format is functional. To be noted: time 18-24 hrs.
The subject of series [5] is Escherichia coli. Nature of the series: Antibacterial activity against Escherichia coli ATCC BAA-2523 assessed as inhibition of bacterial growth incubated for 18 to 24 hrs by broth microdilution method. The conditions noted are these: time 18-24 hrs. The format is functional.
In series [6] the test system is Escherichia coli. In words: Antibacterial activity against Escherichia coli NCTC 13353 assessed as inhibition of bacterial growth incubated for 18 to 24 hrs by broth microdilution method. It is filed as functional. The conditions noted are these: time 18-24 hrs.
Series [7] relates to Escherichia coli. In words: Antibacterial activity against Escherichia coli clinical isolate 19-2 assessed as inhibition of bacterial growth incubated for 18 to 24 hrs by broth microdilution method. The format is functional. To be noted: time 18-24 hrs.
Series [8] relates to Escherichia coli. In words: Antibacterial activity against KPC producing Escherichia coli ATCC BAA-2340 assessed as inhibition of bacterial growth incubated for 18 to 24 hrs by broth microdilution method. The format is functional. The conditions noted are these: time 18-24 hrs.
Series [9] deals with Klebsiella pneumoniae. Nature of the series: Antibacterial activity against carbapenem resistant Klebsiella pneumoniae clinical isolate 19-15 assessed as inhibition of bacterial growth incubated for 18 to 24 hrs by broth microdilution method. The format is functional. The conditions noted are these: time 18-24 hrs.
In series [10] the test system is Klebsiella pneumoniae. Nature of the series: Antibacterial activity against carbapenem resistant Klebsiella pneumoniae clinical isolate 19-17 assessed as inhibition of bacterial growth incubated for 18 to 24 hrs by broth microdilution method. It is filed as functional. The conditions noted are these: time 18-24 hrs.
The test system of series [11] is Klebsiella pneumoniae. In words: Antibacterial activity against KPC producing Klebsiella pneumoniae ATCC BAA-1705 assessed as inhibition of bacterial growth incubated for 18 to 24 hrs by broth microdilution method. The format is functional. The conditions noted are these: time 18-24 hrs.
For series [12], the system named is Pseudomonas aeruginosa. Nature of the series: Antibacterial activity against Pseudomonas aeruginosa clinical isolate 19-1 assessed as inhibition of bacterial growth incubated for 18 to 24 hrs by broth microdilution method. The conditions noted are these: time 18-24 hrs. It is filed as functional.
Series [13] has as its system Pseudomonas aeruginosa. In words: Antibacterial activity against carbapenem resistant Pseudomonas aeruginosa clinical isolate 19-3 assessed as inhibition of bacterial growth incubated for 18 to 24 hrs by broth microdilution method. The conditions noted are these: time 18-24 hrs. It is filed as functional.
Series [14] deals with Pseudomonas aeruginosa. In words: Antibacterial activity against carbapenem resistant Pseudomonas aeruginosa clinical isolate 17-1 assessed as inhibition of bacterial growth incubated for 18 to 24 hrs by broth microdilution method. The format is functional. To be noted: time 18-24 hrs.
Series [15] has as its system Pseudomonas aeruginosa. Nature of the series: Antibacterial activity against Pseudomonas aeruginosa ATCC 27853 assessed as inhibition of bacterial growth incubated for 18 to 24 hrs by broth microdilution method. To be noted: time 18-24 hrs. The format is functional.
Series [16] has as its system Acinetobacter baumannii. Nature of the series: Antibacterial activity against carbapenem resistant Acinetobacter baumannii clinical isolate 19-8 assessed as inhibition of bacterial growth incubated for 18 to 24 hrs by broth microdilution method. To be noted: time 18-24 hrs. The format is functional.
The subject of series [17] is Acinetobacter baumannii. Nature of the series: Antibacterial activity against oxacillinase-27 producing Acinetobacter baumannii NCTC 13304 assessed as inhibition of bacterial growth incubated for 18 to 24 hrs by broth microdilution method. The format is functional. The conditions noted are these: time 18-24 hrs.
The nature of series [18]: Cytotoxicity against human HK-2 cells assessed as inhibition of cell growth incubated for 72 hrs by CCK-8 assay. The format is toxicity, cell-based. Background: Tetrazolium dyes change colour on reduction, which living cells bring about.
The nature of series [19]: Selectivity index, ratio of IC50 for cytotoxicity against human HK-2 cells to MIC for antibacterial activity against Escherichia coli ATCC BAA-2523. The format is toxicity, cell-based.

As usually defined, the MIC is the lowest concentration found to suppress growth. As a reminder, the IC50 is the midpoint of a concentration-inhibition curve.

Each structure is given as a SMILES string. ≈ marks a conversion by molar mass, not a printed value. Bridge positions count the residues as written; N and C are the ends. Square brackets hold non-standard residues; d marks the D form. Peptide text beside a SMILES is read from it. * marks the point of attachment. X1 = CC[C@H](C)CCCCC(=O)*; Dab = NCC[C@H](N)C(=O)O

As to `CCCCCCCCCC(=O)N[C@H](CCN)C(=O)N[C@H]1CCNC(=O)[C@H](Cc2ccccc2)NC(=O)[C@H](CCN)NC(=O)[C@H](CCN)NC(=O)[C@H](Cc2ccccc2)NC(=O)[C@@H](CC(C)C)NC(=O)[C@H](CCN)NC1=O`, the MIC in series [1] was 16 µg/mL (≈ 15.1 µM); in series [2], 8 µg/mL (≈ 7.53 µM); in series [3], 1 µg/mL (≈ 0.941 µM); in [4], 1 µg/mL (≈ 0.941 µM); in series [5], 8 µg/mL (≈ 7.53 µM); in series [6], 8 µg/mL (≈ 7.53 µM). Moreover, the MIC came out at 4 µg/mL (≈ 3.77 µM) in [7]; 8 µg/mL (≈ 7.53 µM) in series [8]; 8 µg/mL (≈ 7.53 µM) in series [9]; 8 µg/mL (≈ 7.53 µM) in series [10]; 1 µg/mL (≈ 0.941 µM) in series [11]; 4 µg/mL (≈ 3.77 µM) in series [12]. Moreover, the MIC in series [13] stood at 4 µg/mL (≈ 3.77 µM); in [14] it was 8 µg/mL (≈ 7.53 µM); in series [15], 8 µg/mL (≈ 7.53 µM); in series [16], 16 µg/mL (≈ 15.1 µM); in series [17], 16 µg/mL (≈ 15.1 µM). For the same compound, the IC50 at 72 h in [18] was found to be 43.1 µg/mL (≈ 40.6 µM). The selectivity ratio in series [19] was 5.4.
Regarding `CCCCCCCCCC(=O)N[C@H](CCN)C(=O)N[C@H]1CNC(=O)[C@H]([C@@H](C)O)NC(=O)[C@H](CCN)NC(=O)[C@H](CCN)NC(=O)[C@H](CC(C)C)NC(=O)[C@@H](CC(C)C)NC(=O)[C@H](CCN)NC1=O`, the MIC in series [1] is over 64 µg/mL; in [2], over 64 µg/mL; in series [3], 1 µg/mL (≈ 1.03 µM); in [4], 32 µg/mL (≈ 33 µM); in series [5], under 64 µg/mL; in [6], over 64 µg/mL. The minimum inhibitory concentration (MIC) in series [7], in [8], in [9], in series [10], in [11] and in series [12] was over 64 µg/mL each time. The MIC in series [13], in [14], in series [15], in [16] and in [17] was over 64 µg/mL throughout. The IC50 at 72 h in series [18] is 68.6 µg/mL (≈ 70.8 µM).
As for `CCCCCCCCCC(=O)N[C@H](CCN)C(=O)N[C@H]1CCNC(=O)[C@H]([C@@H](C)O)NC(=O)[C@H](CCN)NC(=O)[C@H](CCN)NC(=O)[C@H](CC(=O)O)NC(=O)[C@@H](CC(C)C)NC(=O)[C@H](CCN)NC1=O`, the MIC in series [1], in [2], in series [3], in [4], in [5] and in series [6] was over 64 µg/mL each time. Also, the MIC in series [7], in [8], in series [9], in series [10], in series [11] and in series [12] was over 64 µg/mL throughout. Moreover, the MIC in series [13], in series [14], in [15], in series [16] and in series [17] was over 64 µg/mL throughout. The IC50 at 72 h in [18] is over 500 µg/mL.
For the compound `CC[C@H](C)CCCCC(=O)N[C@@H](CCN)C(=O)N[C@H](C(=O)N[C@@H](CCN)C(=O)N[C@H]1CCNC(=O)[C@H]([C@@H](C)O)NC(=O)[C@H](CCN)NC(=O)[C@H](CCN)NC(=O)[C@H](CC(C)C)NC(=O)[C@@H](Cc2ccccc2)NC(=O)[C@H](CCN)NC1=O)[C@@H](C)O` (X1-[Dab]T[Dab][Dab][Dab][dF]L[Dab][Dab]T; lactam 4-C), the IC50 at 72 h in series [18] stood at 55.9 µg/mL (≈ 46.4 µM). Further, in [19], the selectivity ratio was over 932.
